Assay results published in patent US11078222B2, “Hydroxybenzoic acid derivatives, methods and uses thereof” (UNiVERSIDADE DO PORTO, priority 2016, dated 2021).

How the values were obtained:
[1] = Redox potential by differential pulse and cyclic voltammetry, glassy carbon electrode; type: physicochemical; settings: physiological pH 7.4
Description: In an embodiment, the oxidative behaviour of the parent antioxidants (protocatechuic and gallic acids) and AntiOxBENs was evaluated at physiological pH 7.4, by differential pulse and cyclic voltammetry, using a glassy carbon working electrode. […] For pyrogallol derivatives (gallic acid, AntiOxBEN2, AntiOxBEN3), a significant decrease in redox potentials was observed (Ep=0.163-0.168 V) (Table 1).
In an embodiment, the electrochemical analytical data was obtained using a computer controlled potentiostat Autolab PGSTAT302N (Metrohm Autolab, Utrecht, Netherlands). Generally, cyclic voltammetry (CV) data was acquired at a scan rate of 50 mVs^−1. Differential pulse voltammetry (DPV) results were acquired at a step potential of 4 mV, pulse amplitude of 50 mV and scan rate of 8 mVs^−1. The electrochemical signals were monitored by the General Purpose Electrochemical System (GPES) version 4.9, software package. All electrochemical experiments were performed at room temperature in an electrochemical cell that was placed in a Faraday cage in order to minimize the contribution of background noise to the analytical signal.
In an embodiment, the process of evaluation of AntiOxBENs redox properties was conducted as follows: stock solutions of each compound (10 mM) were prepared by dissolving the appropriate amount in ethanol. The voltammetric working solutions were prepared in the electrochemical cell, at a final concentration of 0.1 mM. The […] supporting electrolyte was prepared by diluting 6.2 mL of 0.2 M dipotassium hydrogen phosphate and 43.8 mL of 0.2 M potassium dihydrogen phosphate to 100 mL. Voltammetric data was acquired in a three-electrode system consisting of a glassy carbon electrode (GCE, d=2 mm) as working electrode, a counter electrode of platinum wire and a saturated Ag/AgCl reference electrode. In an embodiment, the evaluation of AntiOxBENs lipophilic properties was performed as follows: the electrochemical cell was a four-electrode system with arrays of micro liquid-liquid interfaces (μITIES) containing two Ag/AgCl reference electrodes and two counter electrodes of Pt, one in each phase. The microporous membrane was sealed with a fluorosilicone sealant (Dow Corning 730) onto a glass cylinder which was filled with 4.0 mL of the aqueous phase, where the aliquots of AntiOxBENs solutions were added. The membrane was then immersed into the organic phase contained in the cell. The organic phase reference solution (a 2 mM BTPPACI+2 mM NaCl aqueous solution) was mechanically stabilized The aqueous supporting electrolyte solution was a Tris-HCl buffer 10 mM pH 7.0.

[2] = Iron (II) chelation, ferrozine assay; type: biochemical; settings: compound 100 μM
Description: In an embodiment, the iron (II) chelation capacity of the novel AntiOxBENs was evaluated by the ferrozine assay using EDTA (ethylenediaminetetracetic acid) as reference. The iron chelating properties of protocatechuic and gallic acids, and MitoQ, a mitochondriotropic antioxidant, were also evaluated (FIG. 2).
In an embodiment, AntiOxBENs iron chelating properties were evaluated by the spectrophotometric ferrozine method performed in a multiplate reader (Powerwave XS Microplate Reader) of Bio-Tech instruments.
In an embodiment, the AntiOxBENs iron chelating properties were evaluated as follows: in each well, a solution of the test compound (100 μM) and ammonium iron (II) sulphate in ammonium acetate (20 μM) were added, incubated for 10 min and the absorbance was read at 562 nm. Then, a freshly prepared solution of ferrozine (5 mM) was added to each well (96 μM final concentration). After a new incubation at 37° C. for 10 min period, the absorbance of [Fe(ferrozine)3]^2+ complex was measured at 562 nm. Blank wells were run using DMSO instead of the test compounds. EDTA was used as a reference. All compounds were tested at a final concentration of 100 μM. The absorbance of the first reading was subtracted to the final values to abolish any absorbance due to the test compounds.

[3] = ABTS radical cation scavenging activity; type: biochemical; settings: ethanol, 15 min
Description: (§2) The radical scavenging activity of AntiOxClNs was evaluated by means of total antioxidant capacity assays based on DPPH., ABTS.^+ and GO. radicals. All these methods involved the spectrophotometric measurement of the absorbance decrease resulting from radical (DPPH., ABTS.^+ or GO.) deactivation with an antioxidant. The results were expressed in IC50, which is defined as the minimum antioxidant concentration necessary to reduce the amount of radical by 50%. Antioxidant assays were performed in a multiplate reader (Powerwave XS Microplate Reader) from Bio Tech instruments.
In an embodiment, the ABTS.^+ scavenging activity was evaluated as follows: ethanolic solutions of the test compounds with increasing concentrations (range between 10 μM and 500 μM) were prepared. ABTS. radical cation solution was obtained by addition of 150 mM aqueous potassium persulfate solution (163 μL) to 10 mL of 7 mM aqueous ABTS solution followed by storage in the dark at room temperature for 16 h (2.45 mM final concentration). The solution was then diluted in ethanol to reach the absorbance of 0.72±0.02. After addition of the compound (20 μL), in triplicate, to ABTS.^+ solution (180 μL) the spectrophotometric measurement was carried out each minute over 15 minutes. […] Dose-response curves were established for the determination of IC50 values.

[4] = DPPH radical scavenging activity (total antioxidant capacity); type: biochemical; settings: ethanol, 515 nm, 45 min
Description: as §2
A DPPH ethanolic solution (6.85 mM) was also prepared and then diluted to reach the absorbance of 0.72±0.02 at 515 nm. Each compound solution (20 μL) was added to 180 μL of DPPH. solution in triplicate, and the absorbance at 515 nm was recorded minutely over 45 minutes. […] Dose-response curves were established for the determination of IC50 values.

[5] = system: rat liver mitochondria (RLM) membranes; experiment: RLM lipid peroxidation, TBARS assay (FeSO4/H2O2/ascorbate); settings: 5 μM; for prevention of TBARS formation / mitochondria lipid peroxidation: FeSO4/H2O2/ascorbate
[6] = GO radical scavenging activity; type: biochemical; settings: ethanol, 428 nm, 30 min
Description: The selected total antioxidant capacity (TAC) assays (DPPH, ABTS and GO) involved the spectrophotometric measurement of the radical absorbance decrease as a result of an in situ radical deactivation by an antioxidant.
as §2
In an embodiment, the GO. scavenging activity was evaluated as follows: solutions of test compounds with concentrations from 10 μM to 100 μM were prepared in ethanol. An ethanolic solution of 5 mM GO. was prepared and diluted to reach the absorbance of 1.00±0.02 at 428 nm. The addition (20 μL) in triplicate of compound solution to GO. solution (180 μL) was followed by absorbance measurement at 428 nm over 30 minutes, in the dark, at room temperature. […] Dose-response curves were established for the determination of IC50 values.

[7] = system: rat liver mitochondria (RLM); experiment: Mitochondrial transmembrane electric potential (safranine fluorescence); type: biochemical
Description: (§1) In an embodiment, and as an example, the toxicity effects of some AntiOxBENs and MitoQ on the mitochondrial bioenergetics, namely on RLM Δψ and respiration parameters, were measured. The Δψ represents the main component of the electrochemical gradient generated by mitochondrial respiration and accounts for more than 90% of the total available energy. For mitochondrial respiration assays, glutamate/malate (for complex I) and succinate (for complex II) were used as substrates. In addition, the mitochondrial oxidative phosphorylation coupling index, known as respiratory control ratio (RCR, state 3/state 4 respiration) and ADP/O index (the coupling between ATP synthesis and oxygen consumption) were also calculated. AntiOxBENs and MitoQ were tested at antioxidant-relevant concentrations, with 10 μM being the highest concentration.
In an embodiment, the evaluation of AntiOxBENs effect on mitochondrial transmembrane electric potential (Δψ) was performed as follows: the mitochondrial transmembrane electric potential (Δψ) was estimated through the evaluation of fluorescence changes of safranine (5 μM) and was recorded on a spectrofluorometer operating at excitation and emission wavelengths of 495 and 586 nm, with a slit width of 5 nm. Increasing concentrations of AntiOxBENs (2.5-10 μM) were added to the reaction medium (200 mM sucrose, 1 mM KH2PO^4, 10 mM Tris (pH 7.4) and 10 μM EGTA) containing respiratory substrates glutamate/malate (5 mM and 2.5 mM respectively) or succinate (5 mM) and RLM (0.5 mg in 2 mL final volume) and allowed to incubate for a 5 min period prior to initiate the assay, at 25° C. In this assay, safranine (5 μM) and ADP (25 nmol) were used to initiate the assay and to induce depolarization, respectively. Then, 1 μM FCCP was added at the end of all experiments to depolarize mitochondria. Δψ was calculated using a calibration curve obtained when RLM were incubated in a K^+-free reaction medium containing 200 mM sucrose, 1 mM NaH2PO4, 10 mM Tris (pH 7.4) and 10 μM EGTA, supplemented with 0.4 μg valinomicin. […] “Repolarization” corresponded to the recovery of membrane potential after the complete phosphorylation of ADP added. Lag phase reflected the time required to phosphorylate the added ADP. Isolated RLM developed a Δψ≈226 mV and Δψ≈202 mV (negative inside) when glutamate/malate or succinate were used, respectively. Data are means±SEM of five independent experiments.

[8] = system: rat liver mitochondria (RLM); experiment: Mitochondrial respiration of isolated RLM (Clark-type oxygen electrode): RCR, ADP/O; type: biochemical
Description: as §1
In an embodiment, the evaluation of AntiOxBENs effect on mitochondrial respiration was performed as follows: the respiration of isolated RLM was evaluated polarographically with a Clark-type oxygen electrode, connected to a suitable recorder in a 1 mL thermostated water-jacketed chamber with magnetic stirring, at 37° C. […] Increasing concentrations of AntiOxBENs (2.5-10 μM) were added to the reaction medium containing respiratory substrates glutamate/malate (10 mM and 5 mM respectively) or succinate (5 mM) and RLM (1 mg) and allowed to incubate for a 5 min period prior to the assay. State 2 was considered as the respiration during the 5 min incubation time with AntiOxBENs. […] State 4 was determined after ADP phosphorylation finished. Subsequent addition of oligomycin (2 μg/ml) inhibited ATPsynthase and originated the oligomycin-inhibition respiration state. Finally, 1 μM FCCP was added to induce uncoupled respiration. […] Data are means are means±SEM of seven independent experiments.

O=C(O)c1ccc(O)c(O)c1 [Protocatechuic acid]
Ep (redox potential) [1]: 0.257 V | ability to chelate ferrous iron [2]: able to chelate iron efficiently | IC50 [3]: 30.1 µM | IC50 [4]: 27.6 µM | prevention of TBARS formation / mitochondria lipid peroxidation [5]: not effective | IC50 [6]: 5.8 µM

O=C(O)CN(CCN(CC(=O)O)CC(=O)O)CC(=O)O [EDTA, ethylenediaminetetracetic acid]
ability to chelate ferrous iron [2]: chelate all the iron available in solution

O=C(O)c1cc(O)c(O)c(O)c1 [Gallic acid]
Ep (redox potential) [1]: 0.163 V | ability to chelate ferrous iron [2]: able to chelate iron efficiently | IC50 [3]: 7.8 µM | IC50 [4]: 9.9 µM | prevention of TBARS formation / mitochondria lipid peroxidation [5]: most effective | IC50 [6]: 2.5 µM

COC1=C(OC)C(=O)C(CCCCCCCCCC[P+](c2ccccc2)(c2ccccc2)c2ccccc2)=C(C)C1=O.CS(=O)(=O)[O-] [MitoQ, [10-(4,5-dimethoxy-2-methyl-3,6-dioxo-1,4-cyclohexadien-1-yl)decyl]triphenylphosphonium methanesulfonate, reference compound]
inhibition of lipid peroxidation in RLM ([5]; FIGS. 4 and 5 (TBARS and oxygen consumption)): effectively inhibited lipid peroxidation | Δψ after ADP addition ([7]; 10 μM): Δψ collapse after ADP addition | ADP-induced depolarization (ΔΨ in - mV) ([7]; Glutamate/Malate, 2.5 μM): 173.0 ± 9.4 - mV | Lag Phase ([7]; Glutamate/Malate, 2.5 μM): 86.5 ± 5.6 s | Maximum potential (ΔΨ in - mV) ([7]; Glutamate/Malate, 2.5 μM): 195.7 ± 10.8 - mV | Repolarization Potential (ΔΨ in - mV) ([7]; Glutamate/Malate, 2.5 μM): 191.1 ± 11.7 - mV | ADP-induced depolarization (ΔΨ in - mV) ([7]; Glutamate/Malate, 5 μM): 173.5 ± 8.9 - mV | Lag Phase ([7]; Glutamate/Malate, 5 μM): 84.5 ± 7.1 s | Maximum potential (ΔΨ in - mV) ([7]; Glutamate/Malate, 5 μM): 188.3 ± 10.6 - mV | Repolarization Potential (ΔΨ in - mV) ([7]; Glutamate/Malate, 5 μM): 185.0 ± 9.4 - mV | Maximum potential (ΔΨ in - mV) ([7]; Glutamate/Malate, 10 μM): 113.8 ± 10.2 - mV | ADP-induced depolarization (ΔΨ in - mV) ([7]; Succinate, 2.5 μM): 162.1 ± 6.0 - mV | Lag Phase ([7]; Succinate, 2.5 μM): 104.8 ± 9.9 s | Maximum potential (ΔΨ in - mV) ([7]; Succinate, 2.5 μM): 181.6 ± 8.3 - mV | Repolarization Potential (ΔΨ in - mV) ([7]; Succinate, 2.5 μM): 182.7 ± 9.2 - mV | ADP-induced depolarization (ΔΨ in - mV) ([7]; Succinate, 5 μM): 157.1 ± 6.4 - mV | Lag Phase ([7]; Succinate, 5 μM): 92.6 ± 19.4 s | Maximum potential (ΔΨ in - mV) ([7]; Succinate, 5 μM): 170.2 ± 8.1 - mV | Repolarization Potential (ΔΨ in - mV) ([7]; Succinate, 5 μM): 170.7 ± 8.7 - mV | Maximum potential (ΔΨ in - mV) ([7]; Succinate, 10 μM): 108.9 ± 3.8 - mV | concentration causing toxicity on the mitochondrial bioenergetic apparatus of RLM ([8]; RLM): 2.5 µM | ADP/O ([8]; RLM, Glutamate/Malate, 2.5 μM): 2.2 ± 0.1 | RCR ([8]; RLM, Glutamate/Malate, 2.5 μM): 4.2 ± 0.6 | ADP/O ([8]; RLM, Glutamate/Malate, 5 μM): 1.9 ± 0.1 | RCR ([8]; RLM, Glutamate/Malate, 5 μM): 2.7 ± 0.3 | ADP/O ([8]; RLM, Glutamate/Malate, 10 μM): 2.0 ± 0.2 | RCR ([8]; RLM, Glutamate/Malate, 10 μM): 1.3 ± 0.1 | ADP/O ([8]; RLM, Succinate, 2.5 μM): 1.3 ± 0.1 | RCR ([8]; RLM, Succinate, 2.5 μM): 2.6 ± 0.2 | ADP/O ([8]; RLM, Succinate, 5 μM): 1.3 ± 0.1 | RCR ([8]; RLM, Succinate, 5 μM): 2.4 ± 0.2 | effect on RCR and ADP/O parameters ([8]; RLM, all tested concentrations (2.5-10 μM)): significant decrease of RCR and ADP/O parameters | uncoupling of RLM ([8]; succinate, highest concentration tested (10 μM)): completely uncoupled

Vitamin E
IC50 [3]: 30.9 µM | IC50 [4]: 26.3 µM | IC50 [6]: 5.8 µM

Cc1c(C)c2c(c(C)c1O)CCC(C)(C(=O)O)O2 (centres unmarked) [Trolox]
Ep (redox potential) [1]: 0.099 V | IC50 [3]: 31.1 µM | IC50 [4]: 26.8 µM | IC50 [6]: 4.5 µM
